The values below come from patent publication US8604070B2, “Use of inhibitors of the renin-angiotensin system” (FinVector Vision Therapies, Ltd., priority 1997, dated 2013).

“Also recorded” adds a separate entry of the source.

The test system of one series is renin gene expression. Conditions: captopril administration; cited from earlier work.
Series [1] can be described thus: Re-analysis of SOLVD treatment trial: cardiac cachexia and survival. The format is in vivo, human. An excerpt: The SOLVD treatment study (57) was a randomized, double-blind, and placebo-controlled trial investigating the effects of enaiapril treatment in clinically stable patients with a LVEF of 35% or less and evidence of overt congestive heart failure. The precis e details of study organisation, inclusion criteria, run-in period (2 to 7 days) and stabilization period (14 to 17 days), randomisation, treatment titration and follow-up have been reported previously (57). Based also on data not otherwise available, the results have been re-analysed, restricted to subjects who participated in the SOLVD treatment trial, who had been free of edema at baseline, who had survived for at least 4 months thereafter, who had weight measurements at baseline and from at least one follow-up visit at 4 months or later.
Of the 2082 patients, 1055 patients were randomised to treatment with enalapril (2.5 to 20 mg per pay) and 1027 patients to treatment with placebo. Body weight at baseline and during follow-up were measured per protocol. Body height was not recorded.
Comparison of means between groups was carried out using an unpaired t-test. Comparison of proportions between groups was made by employing the chi-square test. […] To address the question of whether or not ACE inhibitors influence the risk of first occunence of cachexia, the cumulative incidence of cachexia in the two treatment groups was plotted, and analysed employing the log-rank statistic (59). In the analysis of first occunence of cardiac cachexia, at any given follow-up visit, absence of information on cardiac cachexia (i.e. weight not documented at this visit) is treated as censored. The effect of cardiac cachexia on survival is assessed using Cox proportional hazard analysis (58). For these analyses, cardiac cachexia is treated as a time-dependent covariate. The assessment of cardiac cachexia at 4, 8, and 12 months was used in the analysis. These are the time points in the follow-up period with relatively high proportion of complete information on cachexia status.
The primary analysis was intention-to-treat. Statistical significance is claimed at a computed p-value <0.05 (two-sided testing). Estimates of effects are provided along with their 95% confidence intervals. Results are adjusted for a priori identified prognostic factors such as age, gender, NYHA functional class, LVEF (up to or more than 25%), and treatment status (enalapril vs placebo, in the case of assessing the effect of cardiac cachexia on survival).

For series [2] the following is noted: rat hind limb; cited from earlier work.
In series [3] the test system is rat cardiomyocytes. Briefly: Mitochondrial membrane potential (ΔΨm) by Rh123 flow cytometry. The format is cell-based. Conditions: 1 μM, pre-treatment for 36 hours. An excerpt:
(§1) It is based on observation of the potential difference (ΔΨm) across the inner mitochondrial membrane that is generated by the extrusion of protons to the outside of the mitochondrion during the transport of electrons from electron-carrying coenzymes to molecular oxygen. Part of the energy stored in ΔΨm is utilised to support the synthesis of most of the ATP derived from aerobic metabolism. Thus, ΔΨm is an indicator of the energisation state of the mitochondrion, and also of the efficiency of oxygen utilisation to generate chemical energy. To investigate whether some of the therapeutic properties of ACE inhibitors could be accounted for by an increase in ΔΨm, this parameter was examined in rat cardiomyocytes, following pre-treatment with the ACE inhibitor lisinopril.
More particularly, cardiomyocytes were isolated from new-born Sprague-Dawley rats hearts and maintained in 30 mm tissue culture dishes in the presence of DMEM supplemented with 1% foetal calf serum at 37° C. in a humidified 5% CO2 atmosphere. […]
To measure ΔΨm, the mitochondrial-specific probes rhodamine 123 (Rh123) and 5,5′,6,6′-tetrachloro-1,1′,3,3′-tetraethylbenzimidazolocarbocyanine iodide (JC-1) were used. […] Data were acquired and analysed using Lysis II software (Becton Dickinson).
For orientation: A flow cytometer gives signals particle by particle.

The subject of series [4] is rat cardiomyocytes. Briefly: Mitochondrial membrane potential (ΔΨm) by JC-1 flow cytometry. The format is cell-based. To be noted: 1 μM.
Description: as §1
More particularly, cardiomyocytes were isolated from new-born Sprague-Dawley rats hearts and maintained in 30 mm tissue culture dishes in the presence of DMEM supplemented with 1% foetal calf serum at 37° C. in a humidified 5% CO2 atmosphere. For experiments, cultures were treated with 1 μM lisinopril or with an equivalent amount of vehicle for various lengths of time, before analysis of ΔΨm.
To measure ΔΨm, the mitochondrial-specific probes rhodamine 123 (Rh123) and 5,5′,6,6′-tetrachloro-1,1′,3,3′-tetraethylbenzimidazolocarbocyanine iodide (JC-1) were used. Cells were incubated for 15 min with 2.5 μM Rh123 or for 10 min with […] JC-1 (Molecular Probes) in fresh culture medium, at 37° C. and 5% CO2. […] Data were acquired and analysed using Lysis II software (Becton Dickinson).
JC-1 is a more reliable and sensitive fluorescent probe for assessing changes in ΔΨm. At low concentrations, JC-1 exists mainly in a monomeric form which is characterised by the emission of green fluorescence. […] These aggregates are characterized by the emission of red fluorescence. Thus, an increase in the red to green fluorescence ratio indicates an increase in ΔΨm. […] Thus, the ratio of red to green fluorescence (□) increased as the time of incubation with lisinopril progressed.

The nature of series [5]: Military recruits, 12 weeks training, randomised Losartan or placebo. To be noted: after 12 weeks training. The format is in vivo, human. The source says:
Ninety military recruits were studied before and after military training of 12 weeks duration. These were randomised to receive the AT1-receptor antagonist Losartan or placebo.

Series [6] can be described thus: Cachectic CHF patients treated with Losartan: clinical status, body composition, strength, treadmill. In kind it is in vivo, human. The procedure:
Patient 1 had cachexia due to chronic heart failure (CHF) (person, weight 50.0 kg, height 178 cm, previous weight loss 15.3 kg in 3 years=chronic weight loss). Patient 2 had CHF and a muscle myopathy suffering from idiopathic cachexia (person, weight 62 kg, height 180 cm, previous weight loss 11 kg in year=recent weight loss). Each was treated with Losartan (50 mg once daily). Clinical status and parameters of body composition, strength and treadmill exercise capacity were studies, at baseline and during follow-up. Both patients had evidence of CHF with impaired exercise capacity and impaired left ventricular function (LVEF<40%).
Bioelectrical impedance analysis (patient 1 and 2) was performed in the erect position using a body fat analyser (TANITA TBF-305, Tanita Corporation, Illinois, USA). Lean and fat mass were automatically analysed based on equations supplied and programmed into the machine by the manufacturer. These equations are based upon a comparison with measurements in a health population.
Dual energy X-ray absorptiometry (DEXA) (patient 1): Whole body DEXA-scans were performed using a Lunar model DPXIQ total body scanner (Lunar Radiation Company, Madison, Wisc., USA, Lunar system software version 4.3c). The subject was at each time point scanned rectilinearly from head to toe. A scan takes less than 20 min. The mean radiation dose per scan is reported to be about 0.75 μSv (53), about 1/50th of a normal chest X-ray. The DEXA method can be used to obtain from body density analyses values of fat tissue mass, lean tissue mass. The technical details of DEXA, performance and segment demarcation have been described (54,55). The error of lean tissue measurements is […] and of fat tissue measurements <5% (56).
Treadmill exercise test (Patients 1 and 2): The patients underwent symptom limited treadmill exercise testing. A standard Bruce protocol with the addition of a “stage 0” consisting of 3 min at a speed of 1 mile per hour with a 5% gradient was used. The patients breathed through a one-way valve connected to a respiratory mass spectrometer (Amis 2000, Odense, Denmark) and minute ventilation, oxygen consumption and carbon dioxide production were calculated on line every 10 seconds using a standard inert gas dilution technique. Patients were encouraged to exercise to exhaustion. Exercise time and oxygen consumption at peak exercise adjusted for total body weight (peak V02 in ml/kg/min) were measured as an index of the exercise capacity.
Assessment of quadriceps muscle strength (Patients 1 and 2): The subjects were seated in a rigid frame, with the legs hanging freely. An inelastic strap attached the ankle to a pressure transducer. The recording (Multitrace 2, §, Jersey, Channel Islands) from the pressure transducer was used to assess strength and to provide visual feedback to the subject. […] The best of three voluntary contractions on each leg, with a rest period of at least one minute in-between, was taken to represent the maximal voluntary quadriceps muscle strength of the right and left leg, respectively.

For series [7] the following is noted: human skeletal muscle; cited from earlier work.
For series [8] the following is noted: 5 μg/kg/day, rats; cited from earlier work.
The conditions of series [9]: low dose, humans; cited from earlier work.
The conditions of series [10]: 2.5 mg; cited from earlier work.
The mark [11] stands for this setting: 50 mg once daily, both patients.

Take `C[C@H](CS)C(=O)N1CCC[C@H]1C(=O)O` [captopril]: the “increase in liver renin gene expression” value in the series with renin gene expression is recorded as 3 fold.

Consider `CCOC(=O)[C@H](CCc1ccccc1)N[C@@H](C)C(=O)N1CCC[C@H]1C(=O)O` [enalapril], for which, in [1] (2.5 to 20 mg per day vs placebo, CHF patients), the “risk of developing cardiac cachexia, RR (crude effect of treatment allocation)” value is 0.81. Also, in series [1] (enalapril group), the “patients with weight loss of at least 7.5% with subsequently recorded weights equal to or higher than baseline” value turned out to be 6 patients. The effect on survival result in series [1] (independent of age, gender, NYHA class, LVEF, p<0.01) is “significantly beneficial effect on survival; also recorded: reduced the frequency of the risk of death”. Further, in series [1] (overall), the “reduction of the risk of developing cardiac cachexia” value was 19%.

Turning to “angiotensin II (DRVYIHPF; Angiotensin-2; UniProt P01019 25-32, looked up) [ATII]”, the “O2 usage and twitch tension” value in series [2] is “increases”.

Consider `NCCCC[C@H](N[C@@H](CCc1ccccc1)C(=O)O)C(=O)N1CCC[C@H]1C(=O)O` [lisinopril], for which, in the series with rat cardiomyocytes [3], the “increase in Rh123 fluorescence” value is recorded as “about 30%”. In addition, in the series with rat cardiomyocytes [4] (various lengths of time), the “green fluorescence (JC-1 monomer)” value is “corresponding decrease” and the “red fluorescence (JC-1 aggregates)” value is given as “progressive increase”. Further, the “ratio of red to green fluorescence” value in the series with rat cardiomyocytes [4] (with time of incubation) is on record as “increased”.

For the compound `CCCCc1nc(Cl)c(CO)n1Cc1ccc(-c2ccccc2-c2nn[nH]n2)cc1` [Losartan], in series [5] (DD genotype), the “gain in VO2 max at anaerobic threshold” value was -1.8 ± 6.3 mL/min. The “gain in VO2 max at anaerobic threshold” value in [5] (II genotype) was found to be 0.3 ± 6.3 mL/min. Also, in series [6] (setting [11]), the “exercise capacity (exercise time, peak VO2)” value is on record as “improved” and the side-effects of treatment entry is reported as “No side-effects of treatment were observed”. In addition, the quadriceps muscle strength entry in series [6] (50 mg once daily, both patients, both legs) was “improved”. Moreover, the “improvement in NYHA symptom class” value in series [6] (50 mg once daily, both patients, follow-up 126 and 83 days) is recorded as 1 NYHA symptom class. The compound further registered a weight gain in series [6] (patient 1, 50 mg once daily, 126 days, lean and fat tissue gain) of 4.6 kg. Besides, in series [6] (patient 2, 50 mg once daily, 83 days), the weight course result is on record as “stopping the process of weight loss”. Further, the insulin sensitivity entry in [7] is “improves insulin sensitivity”.

As for `CCOC(=O)[C@H](CCc1ccccc1)N[C@@H](C)C(=O)N1[C@H](C(=O)O)C[C@@H]2CCC[C@@H]21` [ramipril], in [8], the “effect on systolic blood pressure” value is given as “no effect on systolic blood pressure”. Besides, the “effect on systemic blood pressure” value in series [9] is recorded as “without any recordable effect on systemic blood pressure”. Besides, the “frequency of first-dose fall in blood pressure” value in [10] is “same frequency as is seen with placebo”.
